Experimental data reported in US9957274B2, “Indane inhibitors of EED and methods of their use” (AbbVie Inc., priority 2016, dated 2018).

Legend:
H3K27me3 in G401 cells = assay: H3K27me3 AlphaLISA assay in G401 cells; assay type: cell-based; conditions: Homo sapiens, G-401, 144 h, 6 days with compound
Method: G401 cells (ATCC catalog # CRL-1441) were maintained in McCoy's 5a medium (ATCC) supplemented with 10% heat-inactivated FBS (HyClone) at 37° C. in a humidified CO2 incubator. OCILY19 cells (DSMZ catalog #ACC 528) were maintained in IMDM (Invitrogen) supplemented with 10% human serum (Sigma) at 37° C. in a humidified CO2 incubator. 5,000 cells were plated into each well of 96-well Corning CellBing cell culture plates and incubated overnight at 37° C. in a humidified CO2 incubator. […] The cell culture plates were then incubated for 6 more days. H3K27me3 AlphaLISA assay was performed on the cell culture samples by using AlphaLISAR® H3K27me3 Cellular Detection Kit (PerkinElmer) and 96-well white half-area plates (PerkinElmer).

[1] = tested on: H3K27me3 in OCILY19 cells; assay: H3K27me3 AlphaLISA assay in OCILY19 cells; assay type: cell-based; conditions: Homo sapiens, OCI-LY19, 144 h, 6 days with compound, read-out: OCILY-19 IC50
Method: 5,000 cells were plated into each well of 96-well Corning CellBing cell culture plates and incubated overnight at 37° C. in a humidified CO2 incubator. […] The cell culture plates were then incubated for 6 more days. H3K27me3 AlphaLISA assay was performed on the cell culture samples by using AlphaLISAR® H3K27me3 Cellular Detection Kit (PerkinElmer) and 96-well white half-area plates (PerkinElmer).

EED = EED (Homo sapiens, UniProt O75530); assay: EED TR-FRET Binding Assay (modified LanthaScreen competition assay)
EED, sequence (O75530 whole entry): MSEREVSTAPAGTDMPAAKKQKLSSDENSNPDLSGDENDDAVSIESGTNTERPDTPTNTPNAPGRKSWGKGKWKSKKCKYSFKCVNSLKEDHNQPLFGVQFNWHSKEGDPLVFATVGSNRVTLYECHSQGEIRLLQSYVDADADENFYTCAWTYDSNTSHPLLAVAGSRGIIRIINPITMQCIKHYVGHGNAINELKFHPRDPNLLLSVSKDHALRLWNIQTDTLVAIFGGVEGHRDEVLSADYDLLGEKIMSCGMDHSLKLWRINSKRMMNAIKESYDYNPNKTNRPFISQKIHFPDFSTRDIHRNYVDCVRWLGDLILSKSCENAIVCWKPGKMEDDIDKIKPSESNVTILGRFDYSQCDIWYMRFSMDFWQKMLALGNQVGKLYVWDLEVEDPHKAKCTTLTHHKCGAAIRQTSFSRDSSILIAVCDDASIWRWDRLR
In short: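 Competition binding in a modified LanthaScreen format, in 20 mM Tris-HCl pH 7.5, 200 mM NaCl, 0.01% Tween-20, 10 uM DTT and 0.05% BSA. Reactions ran 1 hour at 25° C before TR-FRET detection.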

Pfeiffer cells = assay: CTG cell viability assay (CellTiter-Glo); assay type: cell-based; conditions: Homo sapiens, 240 h; Pfeiffer cells, 10 days with compound, CellTiter-Glo; read-out: Cell Proliferation IC50
Method: 1,000 cells were plated into each well of 96-well Corning CellBing cell culture plates and incubated overnight at 37° C. in a humidified CO2 incubator. […] The cell culture plates were then incubated for 10 more days. CTG cell viability assay was performed on the cell culture samples by using CellTiter-Glo® Luminescent Cell Viability Assay Kit (Promega).

Structure (SMILES): CN(C)[C@H]1CN(C2CCc3cccc(F)c32)C[C@@H]1c1cn(C)c2c(C(=O)N3CC(O)C3)cccc12 (mixture of isomers) [Example 106, rac-{3-[(3S,4R)-4-(dimethylamino)-1-(7-fluoro-2,3-dihydro-1H-inden-1-yl)pyrrolidin-3-yl]-1-methyl-1H-indol-7-yl}(3-hydroxyazetidin-1-yl)methanone]
- IC50 (H3K27me3 in G401 cells): 34.4 nM
- IC50 [1]: 69.5 nM
- IC50 (EED): 0.782 nM
- IC50 (Pfeiffer cells): 74.9 nM

Structure (SMILES): CN(C)[C@H]1CN(C2CCc3cccc(F)c32)C[C@@H]1c1cn(C)c2cc(C(=O)N3CC(O)C3)ccc12 (mixture of isomers) [Example 107, rac-{3-[(3S,4R)-4-(dimethylamino)-1-(7-fluoro-2,3-dihydro-1H-inden-1-yl)pyrrolidin-3-yl]-1-methyl-1H-indol-6-yl}(3-hydroxyazetidin-1-yl)methanone]
- IC50 (H3K27me3 in G401 cells): 84 nM
- IC50 [1]: 497 nM
- IC50 (EED): 1.08 nM
- IC50 (Pfeiffer cells): 284 nM

Structure (SMILES): CN(C)[C@H]1CN(C2CCc3cccc(F)c32)C[C@@H]1c1cn(C)c2c(C(=O)N3CC(S(C)(=O)=O)C3)cccc12 (mixture of isomers) [Example 110, rac-{3-[(3S,4R)-4-(dimethylamino)-1-(7-fluoro-2,3-dihydro-1H-inden-1-yl)pyrrolidin-3-yl]-1-methyl-1H-indol-7-yl}[3-(methanesulfonyl)azetidin-1-yl]methanone]
- IC50 (H3K27me3 in G401 cells): 225 nM
- IC50 [1]: 379 nM
- IC50 (EED): 1.05 nM
- IC50 (Pfeiffer cells): 111 nM

Structure (SMILES): CN(C)[C@H]1CN(C2CCc3cccc(F)c32)C[C@@H]1c1cn(C)c2c(C(=O)N3CCNCC3)cccc12 (mixture of isomers) [Example 119, rac-{3-[(3S,4R)-4-(dimethylamino)-1-(7-fluoro-2,3-dihydro-1H-inden-1-yl)pyrrolidin-3-yl]-1-methyl-1H-indol-7-yl}(piperazin-1-yl)methanone]
- IC50 (H3K27me3 in G401 cells): 120 nM
- IC50 [1]: 214 nM
- IC50 (EED): 1.99 nM
- IC50 (Pfeiffer cells): 247 nM

Structure (SMILES): CN(C)[C@H]1CN(C2CCc3cccc(F)c32)C[C@@H]1c1cn(C)c2c(C(=O)N3CCN(S(=O)(=O)N(C)C)CC3)cccc12 (mixture of isomers) [Example 124, rac-4-{3-[(3S,4R)-4-(dimethylamino)-1-(7-fluoro-2,3-dihydro-1H-inden-1-yl)pyrrolidin-3-yl]-1-methyl-1H-indole-7-carbonyl}-N,N-dimethylpiperazine-1-sulfonamide]
- IC50 (H3K27me3 in G401 cells): 86.4 nM
- IC50 [1]: 207 nM
- IC50 (EED): 1.56 nM
- IC50 (Pfeiffer cells): 349 nM

Structure (SMILES): CN1CCN(c2cccc3c([C@H]4CN(C5CCc6cccc(F)c65)C[C@@H]4N(C)C)cn(C)c23)CC1=O (mixture of isomers) [Example 129, rac-4-{3-[(3S,4R)-4-(dimethylamino)-1-(7-fluoro-2,3-dihydro-1H-inden-1-yl)pyrrolidin-3-yl]-1-methyl-1H-indol-7-yl}-1-methylpiperazin-2-one]
- IC50 (H3K27me3 in G401 cells): 186 nM
- IC50 [1]: 102 nM
- IC50 (EED): 0.739 nM
- IC50 (Pfeiffer cells): 98.1 nM

Structure (SMILES): CN(C)C(=O)N1CCN(c2cccc3c([C@H]4CN(C5CCc6cccc(F)c65)C[C@@H]4N(C)C)cn(C)c23)CC1 (mixture of isomers) [Example 131, rac-4-{3-[(3S,4R)-4-(dimethylamino)-1-(7-fluoro-2,3-dihydro-1H-inden-1-yl)pyrrolidin-3-yl]-1-methyl-1H-indol-7-yl}-N,N-dimethylpiperazine-1-carboxamide]
- IC50 (H3K27me3 in G401 cells): 57.3 nM
- IC50 [1]: 158 nM
- IC50 (EED): 0.406 nM
- IC50 (Pfeiffer cells): 122 nM

Structure (SMILES): CN(C)[C@H]1CN(C2CCc3cccc(F)c32)C[C@@H]1c1cn(C)c2c(C(=O)N3CCN(S(=O)(=O)c4cncn4C)CC3)cccc12 (mixture of isomers) [Example 135, rac-{3-[(3S,4R)-4-(dimethylamino)-1-(7-fluoro-2,3-dihydro-1H-inden-1-yl)pyrrolidin-3-yl]-1-methyl-1H-indol-7-yl}[4-(1-methyl-1H-imidazole-5-sulfonyl)piperazin-1-yl]methanone]
- IC50 (H3K27me3 in G401 cells): 108 nM
- IC50 [1]: 719 nM
- IC50 (EED): 1.45 nM
- IC50 (Pfeiffer cells): 115 nM

Structure (SMILES): Cc1n[nH]c(C)c1S(=O)(=O)N1CCN(C(=O)c2cccc3c([C@H]4CN(C5CCc6cccc(F)c65)C[C@@H]4N(C)C)cn(C)c23)CC1 (mixture of isomers) [Example 136, rac-{3-[(3S,4R)-4-(dimethylamino)-1-(7-fluoro-2,3-dihydro-1H-inden-1-yl)pyrrolidin-3-yl]-1-methyl-1H-indol-7-yl}[4-(3,5-dimethyl-1H-pyrazole-4-sulfonyl)piperazin-1-yl]methanone]
- IC50 (H3K27me3 in G401 cells): 332 nM
- IC50 [1]: 617 nM
- IC50 (EED): 2.05 nM
- IC50 (Pfeiffer cells): 1520 nM

Structure (SMILES): CN(C)[C@H]1CN(C2CCc3cccc(F)c32)C[C@@H]1C1CCN(c2cccnc2)CC1 (mixture of isomers) [Example 149, rac-(3R,4S)-1-(7-fluoro-2,3-dihydro-1H-inden-1-yl)-N,N-dimethyl-4-[1-(pyridin-3-yl)piperidin-4-yl]pyrrolidin-3-amine]
- IC50 (H3K27me3 in G401 cells): 636 nM
- IC50 [1]: 1140 nM
- IC50 (EED): 2.58 nM
- IC50 (Pfeiffer cells): 970 nM

Structure (SMILES): CN(C)[C@H]1CN(C2CCc3cccc(F)c32)C[C@@H]1C1CCN(c2ccccn2)CC1 (mixture of isomers) [Example 152, rac-(3R,4S)-1-(7-fluoro-2,3-dihydro-1H-inden-1-yl)-N,N-dimethyl-4-[1-(pyridin-2-yl)piperidin-4-yl]pyrrolidin-3-amine]
- IC50 (H3K27me3 in G401 cells): 476 nM
- IC50 [1]: 1790 nM
- IC50 (EED): 2.04 nM
- IC50 (Pfeiffer cells): 804 nM

Structure (SMILES): CNC(=O)c1ccc(N2CCC([C@H]3CN(C4CCc5cccc(F)c54)C[C@@H]3N(C)C)CC2)nc1 (mixture of isomers) [Example 154, rac-6-{4-[(3S,4R)-4-(dimethylamino)-1-(7-fluoro-2,3-dihydro-1H-inden-1-yl)pyrrolidin-3-yl]piperidin-1-yl}-N-methylpyridine-3-carboxamide]
- IC50 (H3K27me3 in G401 cells): 372 nM
- IC50 [1]: 493 nM
- IC50 (EED): 1.98 nM
- IC50 (Pfeiffer cells): 455 nM

Structure (SMILES): CN(C)[C@H]1CN(C2CCc3cccc(F)c32)C[C@@H]1c1nn(C)c2ccccc12 (mixture of isomers) [Example 156, rac-(3R,4S)-1-(7-fluoro-2,3-dihydro-1H-inden-1-yl)-N,N-dimethyl-4-(1-methyl-1H-indazol-3-yl)pyrrolidin-3-amine]
- IC50 (H3K27me3 in G401 cells): 212 nM
- IC50 [1]: 293 nM
- IC50 (EED): 1.41 nM
- IC50 (Pfeiffer cells): 375 nM

Structure (SMILES): CN(C)[C@@H]1CN(C2CCc3cccc(F)c32)C[C@H]1c1ccc(N2CCN(C(=O)CS(C)(=O)=O)CC2)nc1 (mixture of isomers) [Example 157, rac-1-(4-{5-[(3R,4S)-4-(dimethylamino)-1-(7-fluoro-2,3-dihydro-1H-inden-1-yl)pyrrolidin-3-yl]pyridin-2-yl}piperazin-1-yl)-2-(methanesulfonyl)ethan-1-one]
- IC50 (H3K27me3 in G401 cells): 227 nM
- IC50 [1]: 205 nM
- IC50 (EED): 1.4 nM
- IC50 (Pfeiffer cells): 354 nM

Structure (SMILES): CN(C)[C@@H]1CN(C2CCc3cccc(F)c32)C[C@H]1c1ccc(-c2cnn(CC(N)=O)c2)nc1 (mixture of isomers) [Example 158, rac-2-(4-{5-[(3R,4S)-4-(dimethylamino)-1-(7-fluoro-2,3-dihydro-1H-inden-1-yl)pyrrolidin-3-yl]pyridin-2-yl}-1H-pyrazol-1-yl)acetamide]
- IC50 (H3K27me3 in G401 cells): 127 nM
- IC50 [1]: 87.2 nM
- IC50 (EED): 1.37 nM
- IC50 (Pfeiffer cells): 385 nM

Structure (SMILES): CN(C)C(=O)Cn1cc(-c2ccc([C@@H]3CN(C4CCc5cccc(F)c54)C[C@H]3N(C)C)cn2)cn1 (mixture of isomers) [Example 159, rac-2-(4-{5-[(3R,4S)-4-(dimethylamino)-1-(7-fluoro-2,3-dihydro-1H-inden-1-yl)pyrrolidin-3-yl]pyridin-2-yl}-1H-pyrazol-1-yl)-N,N-dimethylacetamide]
- IC50 (H3K27me3 in G401 cells): 158 nM
- IC50 [1]: 237 nM
- IC50 (EED): 1.14 nM
- IC50 (Pfeiffer cells): 246 nM

Structure (SMILES): CN(C)[C@@H]1CN(C2CCc3cccc(F)c32)C[C@H]1c1ccc(N2CCN(C(=O)CS(N)(=O)=O)CC2)nc1 (mixture of isomers) [Example 160, rac-2-(4-{5-[(3R,4S)-4-(dimethylamino)-1-(7-fluoro-2,3-dihydro-1H-inden-1-yl)pyrrolidin-3-yl]pyridin-2-yl}piperazin-1-yl)-2-oxoethane-1-sulfonamide]
- IC50 (H3K27me3 in G401 cells): 190 nM
- IC50 [1]: 152 nM
- IC50 (EED): 1.06 nM
- IC50 (Pfeiffer cells): 301 nM

Structure (SMILES): CNC(=O)Cn1cc(-c2ccc([C@@H]3CN(C4CCc5cccc(F)c54)C[C@H]3N(C)C)cn2)cn1 (mixture of isomers) [Example 161, rac-2-(4-{5-[(3R,4S)-4-(dimethylamino)-1-(7-fluoro-2,3-dihydro-1H-inden-1-yl)pyrrolidin-3-yl]pyridin-2-yl}-1H-pyrazol-1-yl)-N-methylacetamide]
- IC50 (H3K27me3 in G401 cells): 151 nM
- IC50 [1]: 571 nM
- IC50 (EED): 0.669 nM
- IC50 (Pfeiffer cells): 293 nM
